According to patent US20080145313A1, “Compositions and Methods for the Treatment and Prevention of Neoplastic Disorders” (Genesis Research & Development Corporation Limited, priority 2006, published 2008):

Tests used:
wt HCT-116 cells = assay: Growth inhibition of siRNA-transfected wt HCT-116 cells, SYBR Green I DNA content; type: cell-based
Procedure: (§1) A549 cells (human lung cancer cell line; ATCC No. CCL-185), SK-MeI-5 cells (human melanoma cell line; ATCC No. HTB-70), MCF-7 cells (human adenocarcinoma cell line; ATCC No. HTB-22), HCT-116 cells (colorectal carcinoma; ATCC CCL-247) and HCT-116 p53 null cells (derived from ATCC No. CCL-247; Bunz et al., Science 282:1497-1501, 1998) were cultured in RPMI 1640 medium with 10% v/v heat-inactivated fetal calf serum (FCS). Cells were seeded at a density of 5×10^4 cells/cm^2 in multi-well tissue culture plates. Sequences of Stealth™ siRNA duplexes (Invitrogen) targeting human ribonucleotide reductase subunit 1 (SEQ ID NO: 22) and subunit 2 (SEQ ID NO; 38) are given in SEQ ID NO: 4830-4832 (DNA), and SEQ ID NO: 5136-5138 (RNA) for RRM1, and SEQ ID NO: 5306-5308 (DNA), and SEQ ID NO: 5303-5305 (RNA) for RRM2. siRNAs were transfected at different concentrations into cells using Lipofectamine™ RNAiMAX transfection reagent (Invitrogen). Non-specific siRNA (SEQ ID NO: 4804 and 4805 (DNA), and SEQ ID NO: 5301 and 5302 (RNA)) were used as controls. The cellular DNA content was measured using a SYBR Green I-based fluorometric assay at 24, 48, 72 and 96 hours after transfection (120 hours for the MCF-7 cells), as follows. At the indicated time points following reverse transfection, cells were harvested and frozen at −80° C. overnight. Cells were thawed and cell lysis buffer (phosphate-buffered saline (PBS) containing 1% Triton X-100, pH 7) and SYBR Green I (1:10^5 V/V; Invitrogen) was added to the wells and incubated overnight in the dark at 4° C.
(§2) The following day, cell lysates were mixed thoroughly, and DNA fluorescence was measured with a Wallac Victor^2 plate reader (Turku, Finland) set at an excitation frequency of 485 nm and measuring emission at 535 nm.
(§3) To determine the effect of the p53-status of cells on RRM1 and RRM2 knockdown, growth inhibition of wild type (wt) HCT-116 and p53 null HCT-116 cells by RRM1 and RRM2-targeted siRNA were determined. Cells were reverse transfected with 1.0 and 10 nM RRM1-3 (SEQ ID NO: 4832 (DNA), and SEQ ID NO: 5138 (RNA)), 1.0 and 10 nM RRM2-2 (SEQ ID NO: 5307 (DNA), and SEQ ID NO: 5304 (RNA)) or 10 nM control siRNA (SEQ ID NO: 4804 (DNA), and SEQ ID NO: 5301 (RNA)), and growth measured daily for up to 4 days post transfection.
(§4) siRNA-mediated RNAi was also determined on a panel of different cell lines. A549, SK-MeI-5, wt HCT-116, HCT-116−/−p53 and MCF-7 cells were transfected with 10 nM siRNAs targeting YBX-1 and growth inhibition determined as described above. The YBX1 siRNAs are given in SEQ ID NO: 4981 to 4985 (DNA) and SEQ ID NO: 5276-5280 (RNA). A non-specific siRNA (SEQ ID NO: 4804 (DNA) and SEQ ID NO: 5301 (RNA)) was used as control. Growth inhibition by the siRNAs, given in Table 14, was standardized against the inhibition obtained with the control siRNA.
HCT-116 and A549 cells were transfected with 0.1, 1.0 and 10 nM siRNA targeting TYMS and DHFR (SEQ ID NO: 4833 to 4838 (DNA), and SEQ ID NO: 5139-5144 (RNA)) using Lipofectamine™ RNAiMAX and incubated for 96 h, in either normal fetal calf serum or serum dialyzed to remove low molecular weight molecules (cut-off 10 kDa). Growth of cells was measured by measuring the total DNA content per well using the SYBR Green assay as described above, and values are given as the percentage of the averaged control values. […] Inhibition increased with increasing siRNA concentration, which was not observed with a non-specific control siRNA. […]

A549 cells = assay: Growth inhibition of siRNA-transfected A549 cells, SYBR Green I DNA content; type: cell-based, human
How it was run: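 A549 cells reverse-transfected with 10 nM Stealth siRNAs via Lipofectamine RNAiMAX, seeded at 5×10^3 cells/cm^2 in RPMI 1640/10% FCS; non-specific siRNA control. DNA content read 96 h post-transfection by SYBR Green I fluorescence (ex 485/em 535 nm) after freeze-thaw and Triton X-100 lysis; mean of three wells.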

HCT-116 p53 null cells = assay: Growth inhibition of siRNA-transfected p53 null HCT-116 cells, SYBR Green I DNA content; type: cell-based
Procedure: as §1, §2, §3, §4

SK-Mel-5 cells = assay: Growth inhibition of siRNA-transfected SK-Mel-5 cells, SYBR Green I DNA content; type: cell-based, human; details: 1 nM p53 siRNA with 1 nM YBX1 siRNA SEQ ID NO: 4982
Procedure: as §1, §2
siRNA-mediated inhibition of cancer cell growth using siRNA targeting the YBX1 gene (SEQ ID NO: 92) was determined as follows. SK-MeI-5 cells were cultured in RPMI 1640 medium with 10% v/v heat-inactivated fetal calf serum. Cells were cultured as described above and reverse transfected with 0.1, 1.0, 10 and 40 nM (final concentration) of a pool of YBX1-targeting siRNAs (SEQ ID NO: 4982 and 4983 (DNA), and SEQ ID NO: 5277 and 5278 (RNA); referred to as 994 and 995 in FIG. 19) or a non-specific control (SEQ ID NO: 4804 (DNA), and SEQ ID NO: 5301 (RNA); referred to as Stealth 81 ctrl in FIG. 19), and cell growth determined after 120 h by measuring DNA fluorescence with a Wallac Victor^2 plate reader (Turku, Finland) set at an excitation frequency of 485 nm and measuring emission at 535 nm. Growth inhibition by the siRNA pool was standardized against the inhibition obtained with the control siRNAs.
as §4

[1] = system: target transcript mRNA in A549 cells; assay: Level of mRNA of target transcript in A549 cells by quantitative RT-PCR (Tables 12 and 13); type: cell-based, human; details: 24 h post-transfection
How it was run: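 A549 cells were transfected with siRNA at 0.1, 1.0 and 10 nM. RNA was extracted 24 h later, reverse-transcribed with random primers, and target mRNA quantified by SYBR Green qRT-PCR. Values were normalised to housekeeping genes HPRT and Lamin.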

HCT-15 cells = assay: Effect of MDR1 knockdown on drug resistance of HCT-15 cells; type: cell-based; details: 10 nM siRNA; drug 72 h; compared with control siRNA
Procedure: HCT-15 cells, which express high endogenous levels of MDR1, were reverse transfected with MDR1-specific (SEQ ID NO: 4976 (DNA), and SEQ ID NO: 5271 (RNA)) or control siRNAs (SEQ ID NO: 4804 (DNA), and SEQ ID NO: 5301 (RNA)) at a final concentration of 10 nM. Lipofectamine-siRNA complexes were made by adding 0.3 μl Lipofectamine RNAiMAX in 10 μl RPMI to an equivalent volume of medium containing siRNA, such that the final siRNA concentration would be 10 nM. This mixture was incubated at room temperature for 20 minutes to allow complexes to form, after which time 1,500 HCT-15 cells in 100 μl RPMI supplemented with 10% FCS were added to the wells. […] Drugs used were Doxorubicin (Sigma, St. Louis Mo.), Paclitaxel (Invitrogen) and Etoposide (Sigma, St. Louis Mo.). At the conclusion of the assay, medium was removed and growth inhibition determined as described above.

[2] = 1 nM p53 siRNA with 1 nM YBX1 siRNA SEQ ID NO: 4982

Substance: SEQ ID NO: 4832: Stealth siRNA targeting RRM1 (chain 1 ATTCAAAGATGTCTAAATGCCAAGG; chain 2 AUUCAAAGAUGUCUAAAUGCCAAGG; Stealth siRNA, chemical pattern not given here; one strand in two spellings)
- growth inhibition, p53 wt HCT-116 (wt HCT-116 cells; 1.0 and 10 nM siRNA, up to 4 days, compared with p53 null): equally growth inhibitory
- Growth Inhibition in A549 cells (A549 cells; 10 nM siRNA, DNA content 96 hours after transfection): ++ (inhibits by at least 75%)
- duration of growth inhibition post-transfection, A549 (A549 cells; 1 and 10 nM siRNA, measured daily for up to ten days): at least 10 days
- growth inhibition, p53 null HCT-116 (HCT-116 p53 null cells; 1.0 and 10 nM siRNA, up to 4 days, compared with p53 wt): equally growth inhibitory

Substance: SEQ ID NO: 5110: p53-targeting Stealth siRNA (chain 1 GCCAAGTCTGTGACTTGCACGTACT; chain 2 GCCAAGUCUGUGACUUGCACGUACU; Stealth siRNA, chemical pattern not given here; one strand in two spellings) [reference compound]
- effect of p53 siRNA co-transfection on YBX1 siRNA-mediated growth inhibition, SK-MeI-5 (SK-Mel-5 cells): completely ablated growth inhibition
- effect of p53 siRNA co-transfection on YBX1 siRNA-mediated growth inhibition, wt HCT-116 (wt HCT-116 cells; [2]): only partial abrogation of growth inhibition
- effect of p53 siRNA co-transfection on YBX1 siRNA-mediated growth inhibition, A549 (A549 cells; 5 nM p53 siRNA with 5 nM YBX1 siRNA SEQ ID NO: 4982): only partial abrogation of growth inhibition
- effect of p53 siRNA co-transfection on YBX1 siRNA-mediated growth inhibition, HCT-116−/−p53 (HCT-116 p53 null cells; [2]): only partial abrogation of growth inhibition

Substance: SEQ ID NO: 4976: MDR1-specific siRNA (ABCB1) (chain 1 TTAGCTTCCAACCACGTGTAAATCC; chain 2 UUAGCUUCCAACCACGUGUAAAUCC; chemistry not given here; one strand in two spellings)
- Growth Inhibition in A549 cells by 10 nM siRNA (A549 cells; A549 cells, 10 nM siRNA, DNA content 96 hours after transfection, transporter gene targets): − (no growth inhibition)
- mRNA knockdown of transporter gene target transcript, 0.1 nM ([1]; 0.1 nM siRNA): − (<50% mRNA knockdown)
- mRNA knockdown of transporter gene target transcript, 1 nM ([1]; 1 nM siRNA): − (<50% mRNA knockdown)
- sensitivity to doxorubicin, HCT-15 (HCT-15 cells): more sensitive
- sensitivity to etoposide, HCT-15 (HCT-15 cells): more sensitive
- sensitivity to paclitaxel, HCT-15 (HCT-15 cells): more sensitive
